Literature values in patent US8349312B2, “Proline substituted cyclosporin analogues” (Enanta Pharmaceuticals, Inc., priority 2009, dated 2013).

Assays:
hepatitis C virus = details: Paeshuyse et al., Antiviral Research 65(3):A41 (2005)
cyclophilin A = cyclophilin A (Homo sapiens, UniProt P62937)
Chain of cyclophilin A (P62937 whole entry, species assumed): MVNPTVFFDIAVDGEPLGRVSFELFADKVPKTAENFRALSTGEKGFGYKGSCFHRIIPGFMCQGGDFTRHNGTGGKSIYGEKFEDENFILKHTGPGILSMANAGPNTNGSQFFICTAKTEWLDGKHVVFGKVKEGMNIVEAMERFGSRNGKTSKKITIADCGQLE

binding affinity for cyclophilin A (cyclophilin A): potent binding affinity
Structure (SMILES): C/C=C/C[C@@H](C)[C@@H](O)[C@H]1C(=O)N[C@@H](CC)C(=O)N(C)[C@H](C)C(=O)N(CC)[C@@H](C(C)C)C(=O)N[C@@H](C(C)C)C(=O)N(C)[C@@H](CC(C)C)C(=O)N[C@@H](C)C(=O)N[C@H](C)C(=O)N(C)[C@@H](CC(C)C)C(=O)N(C)[C@@H](CC(C)C)C(=O)N(C)[C@@H](C(C)C)C(=O)N1C [DEBIO-025]
inhibition of hepatitis C virus replication (hepatitis C virus): potent and selective inhibition
